Reference: US11208412B2 (DAEGU-GYEONGBUK MEDICAL INNOVATION FOUNDATION, priority 2017, dated 2021)

What was measured:
Test in all cases: Kinase selectivity, DiscoverX scanMAX Kinase assay panel (% control)
Assay type in all cases: binding
[1] = target: T1, kinases of the scanMAX Kinase assay panel (Homo sapiens, UniProt O43683); conditions: BUB1; 1 uM
T1 construct: purchased DiscoverX Co. (contract measurement) scanMAX Kinase assay panel
In short: (§1)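 Read-out is % control, normalised so a positive-control compound sits at 0% and DMSO at 100%: (test − positive)/(negative − positive)×100. Each kinase received the compound at 1 uM in DMSO. A value below 35% counts as activity.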

[2] = target: T2, kinases of the scanMAX Kinase assay panel (Homo sapiens, UniProt Q9HAZ1); conditions: CLK4; 1 uM
T2 construct: purchased DiscoverX Co. (contract measurement) scanMAX Kinase assay panel
In short: as §1

[3] = target: T3, kinases of the scanMAX Kinase assay panel (Homo sapiens, UniProt O95747); conditions: OSR1; 1 uM
T3 construct: purchased DiscoverX Co. (contract measurement) scanMAX Kinase assay panel
In short: as §1

[4] = target: T4, kinases of the scanMAX Kinase assay panel (Homo sapiens, UniProt O94806); conditions: PRKD3; 1 uM
T4 construct: purchased DiscoverX Co. (contract measurement) scanMAX Kinase assay panel
T4 sequence (O94806 1-890): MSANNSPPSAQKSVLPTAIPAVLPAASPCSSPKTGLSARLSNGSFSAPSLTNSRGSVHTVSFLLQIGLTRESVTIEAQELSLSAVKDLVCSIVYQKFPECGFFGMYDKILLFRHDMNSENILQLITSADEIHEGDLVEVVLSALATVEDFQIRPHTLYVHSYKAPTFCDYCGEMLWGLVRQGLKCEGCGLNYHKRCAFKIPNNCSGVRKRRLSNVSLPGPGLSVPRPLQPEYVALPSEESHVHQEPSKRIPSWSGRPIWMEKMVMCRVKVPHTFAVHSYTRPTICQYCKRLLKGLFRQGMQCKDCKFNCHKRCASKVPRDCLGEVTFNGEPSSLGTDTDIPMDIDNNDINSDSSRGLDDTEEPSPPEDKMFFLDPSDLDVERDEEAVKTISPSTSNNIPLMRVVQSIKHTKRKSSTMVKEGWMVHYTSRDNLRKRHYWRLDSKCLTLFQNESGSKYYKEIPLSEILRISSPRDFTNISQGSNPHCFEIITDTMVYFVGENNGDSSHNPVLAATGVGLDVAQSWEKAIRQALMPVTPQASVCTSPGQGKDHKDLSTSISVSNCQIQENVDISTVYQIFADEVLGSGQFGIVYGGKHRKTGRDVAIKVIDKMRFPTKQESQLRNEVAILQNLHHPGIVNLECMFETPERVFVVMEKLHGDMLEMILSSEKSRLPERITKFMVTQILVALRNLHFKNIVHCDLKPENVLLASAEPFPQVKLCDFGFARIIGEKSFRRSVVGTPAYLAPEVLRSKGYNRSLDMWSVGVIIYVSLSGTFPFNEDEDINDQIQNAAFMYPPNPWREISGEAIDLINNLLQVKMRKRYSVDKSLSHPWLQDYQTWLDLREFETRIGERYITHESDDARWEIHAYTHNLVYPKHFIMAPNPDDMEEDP
In short: as §1

[5] = target: T5, kinases of the scanMAX Kinase assay panel (Homo sapiens, UniProt P00533, DEL752-759); conditions: EGFR(S752-I759de1); 1 uM
T5 construct: purchased DiscoverX Co. (contract measurement) scanMAX Kinase assay panel
In short: as §1

[6] = target: T6, kinases of the scanMAX Kinase assay panel (Homo sapiens, UniProt P53778); conditions: p38-gamma; 1 uM
T6 construct: purchased DiscoverX Co. (contract measurement) scanMAX Kinase assay panel
T6 sequence (P53778 1-367): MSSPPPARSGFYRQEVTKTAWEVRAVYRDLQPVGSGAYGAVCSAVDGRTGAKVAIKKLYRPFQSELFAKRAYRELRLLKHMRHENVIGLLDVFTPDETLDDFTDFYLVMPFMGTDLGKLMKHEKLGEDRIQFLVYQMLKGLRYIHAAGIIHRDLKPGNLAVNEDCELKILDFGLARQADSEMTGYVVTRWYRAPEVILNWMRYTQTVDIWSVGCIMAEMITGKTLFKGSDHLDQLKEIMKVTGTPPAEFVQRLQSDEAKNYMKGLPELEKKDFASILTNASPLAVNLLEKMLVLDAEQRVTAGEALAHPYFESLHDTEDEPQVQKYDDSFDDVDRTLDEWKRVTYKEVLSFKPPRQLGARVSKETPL
In short: as §1

[7] = target: T7, kinases of the scanMAX Kinase assay panel (Homo sapiens, UniProt P22455); conditions: FGFR4; 1 uM
T7 construct: purchased DiscoverX Co. (contract measurement) scanMAX Kinase assay panel
In short: as §1

T3 sequence (O95747 whole entry): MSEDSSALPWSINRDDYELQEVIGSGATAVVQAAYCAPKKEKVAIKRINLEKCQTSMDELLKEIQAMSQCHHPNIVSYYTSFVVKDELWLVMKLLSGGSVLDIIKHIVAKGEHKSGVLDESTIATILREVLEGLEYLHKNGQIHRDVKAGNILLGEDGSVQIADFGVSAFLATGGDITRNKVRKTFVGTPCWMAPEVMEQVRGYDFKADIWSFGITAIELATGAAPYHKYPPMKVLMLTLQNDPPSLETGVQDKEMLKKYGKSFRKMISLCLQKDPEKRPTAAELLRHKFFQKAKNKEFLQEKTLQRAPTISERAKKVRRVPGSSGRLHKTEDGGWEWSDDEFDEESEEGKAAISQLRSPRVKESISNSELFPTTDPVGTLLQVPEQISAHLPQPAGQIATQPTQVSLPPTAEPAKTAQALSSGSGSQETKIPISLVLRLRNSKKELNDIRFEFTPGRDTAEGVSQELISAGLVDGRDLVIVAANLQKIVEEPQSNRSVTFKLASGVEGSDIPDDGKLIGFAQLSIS
T5 sequence (P00533 with tags, fused parts or gaps DEL752-759): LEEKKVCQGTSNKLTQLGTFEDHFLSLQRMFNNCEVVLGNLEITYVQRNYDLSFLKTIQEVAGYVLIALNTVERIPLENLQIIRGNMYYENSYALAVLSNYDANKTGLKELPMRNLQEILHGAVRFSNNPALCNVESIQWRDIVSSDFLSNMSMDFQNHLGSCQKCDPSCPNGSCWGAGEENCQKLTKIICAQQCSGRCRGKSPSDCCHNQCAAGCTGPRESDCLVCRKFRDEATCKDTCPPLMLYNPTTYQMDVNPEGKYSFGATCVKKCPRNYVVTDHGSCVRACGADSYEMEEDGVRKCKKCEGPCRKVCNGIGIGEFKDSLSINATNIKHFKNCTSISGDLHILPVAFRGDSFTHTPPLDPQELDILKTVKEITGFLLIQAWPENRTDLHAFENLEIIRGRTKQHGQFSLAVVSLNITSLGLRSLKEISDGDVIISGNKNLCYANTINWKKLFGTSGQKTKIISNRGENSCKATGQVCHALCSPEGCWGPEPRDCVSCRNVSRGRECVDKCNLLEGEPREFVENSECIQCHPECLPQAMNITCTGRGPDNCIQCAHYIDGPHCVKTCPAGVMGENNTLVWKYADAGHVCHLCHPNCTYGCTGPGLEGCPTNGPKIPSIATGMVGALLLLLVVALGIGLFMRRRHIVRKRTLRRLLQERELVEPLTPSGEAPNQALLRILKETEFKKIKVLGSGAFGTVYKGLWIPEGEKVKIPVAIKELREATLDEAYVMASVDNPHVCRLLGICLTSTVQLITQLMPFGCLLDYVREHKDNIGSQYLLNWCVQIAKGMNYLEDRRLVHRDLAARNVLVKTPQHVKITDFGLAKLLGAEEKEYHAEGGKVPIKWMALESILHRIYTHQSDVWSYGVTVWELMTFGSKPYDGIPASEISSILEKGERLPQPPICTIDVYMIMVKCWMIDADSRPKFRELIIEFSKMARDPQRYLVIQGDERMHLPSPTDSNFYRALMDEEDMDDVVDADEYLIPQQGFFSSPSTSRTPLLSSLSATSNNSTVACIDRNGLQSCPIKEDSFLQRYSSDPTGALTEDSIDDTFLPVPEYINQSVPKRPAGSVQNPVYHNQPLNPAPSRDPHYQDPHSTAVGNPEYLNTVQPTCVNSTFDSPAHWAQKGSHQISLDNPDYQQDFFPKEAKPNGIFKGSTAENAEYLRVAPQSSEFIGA
T1 sequence (O43683 whole entry): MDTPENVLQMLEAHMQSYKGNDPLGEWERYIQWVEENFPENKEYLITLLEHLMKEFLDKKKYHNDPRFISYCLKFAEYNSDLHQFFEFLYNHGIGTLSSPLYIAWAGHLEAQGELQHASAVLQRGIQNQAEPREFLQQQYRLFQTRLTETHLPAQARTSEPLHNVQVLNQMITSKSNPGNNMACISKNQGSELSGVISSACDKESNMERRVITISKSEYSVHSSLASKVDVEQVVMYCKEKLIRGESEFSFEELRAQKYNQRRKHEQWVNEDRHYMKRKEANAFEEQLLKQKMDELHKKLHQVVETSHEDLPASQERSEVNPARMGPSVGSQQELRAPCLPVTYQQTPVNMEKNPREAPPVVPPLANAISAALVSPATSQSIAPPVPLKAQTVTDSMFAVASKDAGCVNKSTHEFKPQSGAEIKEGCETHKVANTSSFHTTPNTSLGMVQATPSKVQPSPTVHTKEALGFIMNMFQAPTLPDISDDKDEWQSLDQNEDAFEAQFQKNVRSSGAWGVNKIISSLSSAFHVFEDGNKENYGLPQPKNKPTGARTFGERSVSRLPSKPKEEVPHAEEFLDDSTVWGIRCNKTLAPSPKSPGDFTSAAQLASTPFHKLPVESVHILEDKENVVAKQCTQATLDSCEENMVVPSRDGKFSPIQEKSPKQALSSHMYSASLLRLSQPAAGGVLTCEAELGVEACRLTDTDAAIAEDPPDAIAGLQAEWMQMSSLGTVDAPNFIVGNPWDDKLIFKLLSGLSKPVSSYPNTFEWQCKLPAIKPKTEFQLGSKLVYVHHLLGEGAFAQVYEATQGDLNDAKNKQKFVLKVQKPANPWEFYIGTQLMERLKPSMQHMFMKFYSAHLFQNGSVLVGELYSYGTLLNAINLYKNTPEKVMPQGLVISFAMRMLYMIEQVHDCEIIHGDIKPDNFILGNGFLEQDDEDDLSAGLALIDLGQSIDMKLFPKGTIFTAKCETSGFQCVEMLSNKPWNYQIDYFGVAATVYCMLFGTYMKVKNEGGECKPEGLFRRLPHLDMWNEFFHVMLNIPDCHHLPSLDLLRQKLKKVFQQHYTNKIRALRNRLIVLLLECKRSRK
T2 sequence (Q9HAZ1 whole entry): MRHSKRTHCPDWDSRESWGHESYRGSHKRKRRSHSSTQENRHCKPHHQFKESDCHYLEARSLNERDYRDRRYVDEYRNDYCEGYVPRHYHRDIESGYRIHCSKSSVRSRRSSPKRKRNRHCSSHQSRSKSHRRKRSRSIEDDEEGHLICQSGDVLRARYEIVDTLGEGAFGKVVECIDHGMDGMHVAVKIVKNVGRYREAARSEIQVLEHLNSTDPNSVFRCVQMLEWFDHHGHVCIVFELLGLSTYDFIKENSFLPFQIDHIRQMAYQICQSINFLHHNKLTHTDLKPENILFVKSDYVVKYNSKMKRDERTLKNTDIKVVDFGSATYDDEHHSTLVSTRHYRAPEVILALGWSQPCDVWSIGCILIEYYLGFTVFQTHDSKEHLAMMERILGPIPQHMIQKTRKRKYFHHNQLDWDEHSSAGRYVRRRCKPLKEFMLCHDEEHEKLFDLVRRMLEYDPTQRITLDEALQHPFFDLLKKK
T7 sequence (P22455 22-802): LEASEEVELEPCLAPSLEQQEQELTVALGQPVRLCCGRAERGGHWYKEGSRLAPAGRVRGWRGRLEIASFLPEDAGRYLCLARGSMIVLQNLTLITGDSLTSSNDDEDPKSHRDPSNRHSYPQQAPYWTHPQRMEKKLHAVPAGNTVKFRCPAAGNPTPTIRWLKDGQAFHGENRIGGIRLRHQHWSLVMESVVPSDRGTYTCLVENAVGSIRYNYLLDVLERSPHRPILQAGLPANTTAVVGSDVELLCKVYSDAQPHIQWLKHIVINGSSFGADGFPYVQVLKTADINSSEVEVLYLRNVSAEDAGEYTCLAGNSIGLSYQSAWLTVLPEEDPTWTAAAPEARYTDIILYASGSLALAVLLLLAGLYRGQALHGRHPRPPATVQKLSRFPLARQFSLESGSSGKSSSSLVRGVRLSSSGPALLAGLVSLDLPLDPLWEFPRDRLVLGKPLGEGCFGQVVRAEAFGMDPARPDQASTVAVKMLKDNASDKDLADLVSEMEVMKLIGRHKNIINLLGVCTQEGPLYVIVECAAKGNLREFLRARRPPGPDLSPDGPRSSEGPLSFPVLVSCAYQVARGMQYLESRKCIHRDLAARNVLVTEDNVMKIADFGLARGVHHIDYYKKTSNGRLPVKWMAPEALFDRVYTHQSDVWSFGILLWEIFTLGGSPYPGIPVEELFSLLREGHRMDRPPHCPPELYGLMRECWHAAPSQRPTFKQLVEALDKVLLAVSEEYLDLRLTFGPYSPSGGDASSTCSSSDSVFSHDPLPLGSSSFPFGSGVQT

Structure (SMILES)	remaining binding at 1 µM [1] [%]	remaining binding at 1 µM [2] [%]	remaining binding at 1 µM [3] [%]	remaining binding at 1 µM [4] [%]	remaining binding at 1 µM [5] [%]	remaining binding at 1 µM [6] [%]	remaining binding at 1 µM [7] [%]
CNc1nc(Nc2ccc(C(=O)N3CCOCC3)cc2OC)nc2[nH]cc(C#N)c12 [Example 1, 2-((2-methoxy-4-(morpholine-4-carbonyl)phenyl)amino)-4-(methylamino)-7H-pyrrolo[2,3-d]pyrimidine-5-carbonitrile]	36	3.4	21	39	76	70	89
CC1(Nc2nc(Nc3cnn([C@H]4CCN(C5COC5)C[C@@H]4F)c3Cl)nc3[nH]cc(C#N)c23)CC1 [Example 52, 2-((5-chloro-1-((3S,4S)-3-fluoro-1-(oxetane-3-yl)piperidine-4-yl)-1H-pyrazole-4-yl)amino)((1-methylcyclopropyl)amino)-7H-pyrrolo[2,3-d]pyrimidine-5-carbonitrile]	0.2	1.4	0.45	0.7	94	77	31
CCNc1nc(Nc2ccc(C(=O)N3CCC(N4CCOCC4)CC3)cc2OC)nc2[nH]cc(C(F)(F)F)c12 [Example 104, (4-((4-(ethylamino)-5-(trifluoromethyl)-7H-pyrrolo[2,3-d]pyrimidine-2-yl)amino)-3-methoxyphenyl)(4-morpholinopiperidine-1-yl)methanone]	95	4.1	7.5	17	100	89	38
